From US20250154525A1, “PLANT VIRUS MOVEMENT PROTEINS AND METHODS OF USING SAME” (Molecular Transfer, Inc., priority 2016, published 2025)

Key:
some examined cell types = test: Summary of Example 1: transfection expression and % cells transfected over the no peptide control; format: cell-based; conditions: on some examined cell types
Outline: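 Cells at 70% confluence received DNA complexes of EF1Alpha eGFP plasmid with DOTMA/DOPE (1:1) plus oligo-Arg- or oligo-Lys-tagged peptide ligands, formed 10 min at room temperature. After 42 h at 37 °C, 5% CO2, GFP read by plate reader and % transfected cells judged microscopically, relative to lipid without peptide.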

HeLa Cells [1] = test: GFP transfection with DOTMA/SEQ ID NO: 72 (fusogenic peptide)/peptide compared with Lipofectamine 2000; format: cell-based
Outline: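 DOTMA/DOPE (1:1 molar) lipid mixed with polyarginine- or polylysine-tagged cell-surface-ligand peptide, complexed 10 min with EF1alpha eGFP plasmid at 10 μg/mL in OptiMEM, fusogenic peptide at 0.1 mg/mL final; HeLa cells ~70% confluent given 0.01 mL complex. GFP read by fluorescence plate reader and microscopy (% cells transfected) after 42 h at 37° C; Lipofectamine 2000 as comparator.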

HuVec Cells = test: GFP plasmid transfection with DOTMA/DOPE plus surface ligand peptide, fluorescent plate reader (Example 1); format: cell-based; conditions: DOTMA/DOPE + peptide linked to R12 or K16; EF1Alpha eGFP plasmid; 42 hours
Outline: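 HuVEC cells in 96 well plates at 70% confluence were transfected with EF1Alpha eGFP plasmid using a 1:1 molar DOTMA/DOPE lipid mixed with a surface ligand peptide carrying a covalently attached nucleic acid binding moiety. Complexes formed for 10 minutes, 0.01 mL went to each well, cells were incubated 42 hours at 37° C., and fluorescence was read on a plate reader.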

HeLa Cells [2] = test: as above; format: cell-based; conditions: DOTMA/DOPE + peptide linked to R12 or K16; EF1Alpha eGFP plasmid; 42 hours
NL-1 iPS Cells = test: as above; format: cell-based; conditions: DOTMA/DOPE + peptide linked to R12 or K16; EF1Alpha eGFP plasmid; 42 hours
Human Fibroblast Cells = test: as above; format: cell-based; conditions: DOTMA/DOPE + peptide linked to R12 or K16; EF1Alpha eGFP plasmid; 42 hours
Outline: (§1)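 DOTMA/DOPE (1:1 molar) plus peptide bearing a poly-Arg or poly-Lys tag was complexed 10 min with EF1alpha eGFP plasmid in OptiMEM, then added to 70%-confluent cells (0.01 mL fibroblasts; 0.02 mL C2C12, Jurkat). After 42 h at 37 °C, GFP was read by plate reader and compared with DOTMA without ligand.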

Jurkat Cells = test: as above; format: cell-based; conditions: DOTMA/DOPE + peptide linked to R12 or K16; EF1Alpha eGFP plasmid; 42 hours
Outline: as §1

C2C12 Cells = test: as above; format: cell-based, mouse; conditions: DOTMA/DOPE + peptide linked to R12 or K16; EF1Alpha eGFP plasmid; 42 hours
Outline: as §1

[3] = 0.1 μL of DOTMA/SEQ ID NO: 72/Peptide in well of a 96 well plate
[4] = 0.2 μL of DOTMA/SEQ ID NO: 72/Peptide in well of a 96 well plate
[5] = 0.3 μL of DOTMA/SEQ ID NO: 72/Peptide in well of a 96 well plate
[6] = 0.4 μL of DOTMA/SEQ ID NO: 72/Peptide in well of a 96 well plate

In the case of 326 (RLVSYSGVLFFLK) [compound 326], the “transfection expression and % cells transfected over the no peptide control” value (some examined cell types) is reported as “increased transfection expression and the % cells transfected”, the “Relative Fluorescence DOTMA/SEQ ID NO: 72/Peptide, HeLa Cells (RF)” value (“Relative Fluorescence DOTMA/SEQ ID NO” for short) (HeLa Cells [1]; [3]) is reported as 6887 and the “Relative Fluorescence DOTMA/SEQ ID NO” value (HeLa Cells [1]; [4]) is reported as 9487. For the same substance, the “Relative Fluorescence DOTMA/SEQ ID NO” value (HeLa Cells [1]; [5]) was 10330, the “Relative Fluorescence DOTMA/SEQ ID NO” value (HeLa Cells [1]; [6]) was 9227 and the “Relative Fluorescence of Transfection of HuVec Cells (RF)” value (HuVec Cells) was 4932. For the same substance, the “Relative Fluorescence of Transfection of HeLa Cells (RF)” value (HeLa Cells [2]) was 18946, the “Relative Fluorescence of Transfection of NL-1 iPS Cells (RF)” value (NL-1 iPS Cells) was 9239 and the “Relative Fluorescence of Transfection of Human Fibroblast Cells (RF)” value (Human Fibroblast Cells) was 3070. For the same substance, the “Relative Fluorescence of Transfection of Jurkat Cells (RF)” value (Jurkat Cells) was 3018 and the “Relative Fluorescence of Transfection of C2C12 Cells (RF)” value (C2C12 Cells) was 8553.
For “323 (HQQDLGTAGSCLRKFSTMFLF) [compound 323]”, the “transfection expression and % cells transfected over the no peptide control” value (some examined cell types) was “increased transfection expression and the % cells transfected”, the “Relative Fluorescence DOTMA/SEQ ID NO” value (HeLa Cells [1]; [3]) was 15537 and the “Relative Fluorescence DOTMA/SEQ ID NO” value (HeLa Cells [1]; [4]) was 16620. The “Relative Fluorescence DOTMA/SEQ ID NO” value (HeLa Cells [1]; [5]) was 10839, the “Relative Fluorescence DOTMA/SEQ ID NO” value (HeLa Cells [1]; [6]) was 9244 and the “Relative Fluorescence of Transfection of HuVec Cells (RF)” value (HuVec Cells) was 12815. For the same substance, the “Relative Fluorescence of Transfection of HeLa Cells (RF)” value (HeLa Cells [2]) was 14067, the “Relative Fluorescence of Transfection of NL-1 iPS Cells (RF)” value (NL-1 iPS Cells) was 21694 and the “Relative Fluorescence of Transfection of Human Fibroblast Cells (RF)” value (Human Fibroblast Cells) was 4826. The “Relative Fluorescence of Transfection of Jurkat Cells (RF)” value (Jurkat Cells) was 2900 and the “Relative Fluorescence of Transfection of C2C12 Cells (RF)” value (C2C12 Cells) was 7698.
For 237 (KNSFMALYLSKG) [compound 237], the “transfection expression and % cells transfected over the no peptide control” value (some examined cell types) was “increased transfection expression and the % cells transfected”, the “Relative Fluorescence DOTMA/SEQ ID NO” value (HeLa Cells [1]; [3]) was 8986 and the “Relative Fluorescence DOTMA/SEQ ID NO” value (HeLa Cells [1]; [4]) was 9753. For the same substance, the “Relative Fluorescence DOTMA/SEQ ID NO” value (HeLa Cells [1]; [5]) was 8015, the “Relative Fluorescence DOTMA/SEQ ID NO” value (HeLa Cells [1]; [6]) was 8288 and the “Relative Fluorescence of Transfection of HuVec Cells (RF)” value (HuVec Cells) was 2302. For the same substance, the “Relative Fluorescence of Transfection of HeLa Cells (RF)” value (HeLa Cells [2]) was 21288, the “Relative Fluorescence of Transfection of NL-1 iPS Cells (RF)” value (NL-1 iPS Cells) was 8632 and the “Relative Fluorescence of Transfection of Human Fibroblast Cells (RF)” value (Human Fibroblast Cells) was 2184. For the same substance, the “Relative Fluorescence of Transfection of Jurkat Cells (RF)” value (Jurkat Cells) was 1501 and the “Relative Fluorescence of Transfection of C2C12 Cells (RF)” value (C2C12 Cells) was 6491.
328 (NWRHISYITRFG) [compound 328] was tested, and the “transfection expression and % cells transfected over the no peptide control” value (some examined cell types) was “increased transfection expression and the % cells transfected”, the “Relative Fluorescence DOTMA/SEQ ID NO” value (HeLa Cells [1]; [3]) was 11037 and the “Relative Fluorescence DOTMA/SEQ ID NO” value (HeLa Cells [1]; [4]) was 12229. For the same substance, the “Relative Fluorescence DOTMA/SEQ ID NO” value (HeLa Cells [1]; [5]) was 10801, the “Relative Fluorescence DOTMA/SEQ ID NO” value (HeLa Cells [1]; [6]) was 10951 and the “Relative Fluorescence of Transfection of HuVec Cells (RF)” value (HuVec Cells) was 3614. For the same substance, the “Relative Fluorescence of Transfection of HeLa Cells (RF)” value (HeLa Cells [2]) was 32528, the “Relative Fluorescence of Transfection of NL-1 iPS Cells (RF)” value (NL-1 iPS Cells) was 8611 and the “Relative Fluorescence of Transfection of Human Fibroblast Cells (RF)” value (Human Fibroblast Cells) was 5641. The “Relative Fluorescence of Transfection of Jurkat Cells (RF)” value (Jurkat Cells) was 4770 and the “Relative Fluorescence of Transfection of C2C12 Cells (RF)” value (C2C12 Cells) was 5507.
In the case of 336 (GEFYFDLRLKGDK) [compound 336], the “transfection expression and % cells transfected over the no peptide control” value (some examined cell types) is reported as “increased transfection expression and the % cells transfected”, the “Relative Fluorescence DOTMA/SEQ ID NO” value (HeLa Cells [1]; [3]) is reported as 14442 and the “Relative Fluorescence DOTMA/SEQ ID NO” value (HeLa Cells [1]; [4]) is reported as 16702. The “Relative Fluorescence DOTMA/SEQ ID NO” value (HeLa Cells [1]; [5]) was 13434, the “Relative Fluorescence DOTMA/SEQ ID NO” value (HeLa Cells [1]; [6]) was 11334 and the “Relative Fluorescence of Transfection of HuVec Cells (RF)” value (HuVec Cells) was 5366. The “Relative Fluorescence of Transfection of HeLa Cells (RF)” value (HeLa Cells [2]) was 25262, the “Relative Fluorescence of Transfection of NL-1 iPS Cells (RF)” value (NL-1 iPS Cells) was 14875 and the “Relative Fluorescence of Transfection of Human Fibroblast Cells (RF)” value (Human Fibroblast Cells) was 10449. The “Relative Fluorescence of Transfection of Jurkat Cells (RF)” value (Jurkat Cells) was 4813 and the “Relative Fluorescence of Transfection of C2C12 Cells (RF)” value (C2C12 Cells) was 9647.
